From US8008354B2, “Death receptor sensitizing compounds and methods of use therefor” (Burnham Institute for Medical Research, priority 2006, dated 2011)
Entries after “also recorded” stand apart in the source; their conditions may differ. Where a name gives a salt, the structure may show the parent alone.

Tests used:
Format in all cases: cell-based, human
[1] = tested on: PPC-1 cells; test: Annexin V apoptosis of PPC-1 cells with CH-11 and sensitizer, with or without zVAD-fmk; settings: zVAD-fmk 100 μM, annexin V staining
Description: FIG. 6. Characterization of the mechanism of FAS-sensitizing compounds. (A) PPC-1 cells (1×10^5) were seeded in 24 well plates. The next day, cells were treated with CH-11 antibody (100 ng/mL) and 30 μM 6094911, 5809354, or 5569100 with (square) or without (diamond) caspase inhibitor z-VAD-fmk (100 μM). Apoptosis was measured 24 hours later by Annexin V staining, expressing data as percentage of Annexin V-negative (“viable”) cells (mean+SD) (n=3). (B) PPC-1 cells (2×10^5) were seeded in 6 well plates and co-transfected with plasmids encoding Bcl-XL, Crm A, or empty vector along with a green fluorescent protein (GFP) encoding plasmid to identify successfully transfected cells. After 48 hours, cells were treated with CH-11 antibody (100 ng/mL) and 6094911 (30 μM), 5809354 (30 μM), or 5569100 (15 μM). As a positive control, transfected cells were treated with staurosporine (0.5 μM) (STS). Apoptotic cells were identified by morphological assessment of the GFP-positive cells, and data were expressed as the percentage of nonapoptotic (“viable”) cells (mean+SD) (n=3).
Cell death assays. Cell viability was measured by MTT and MTS assays, essentially as described in Schimmer et al. (2004). Absorbance readings were plotted against a standard curve to derive the corresponding cell number, and cell viability was expressed as a percentage relative to untreated cells. Apoptosis was measured by flow cytometric analysis of Annexin V surface expression after staining cells with FITC-anti-Annexin V and propidium iodide (PI) (Biovision, Mountain View, Calif.), as described in Pederson et al. (2002).
To further assess the mechanism of the 8 compounds that selectively modulated tumor sensitivity to extrinsic pathway stimuli, the effects of benzoyl-Val-Ala-Asp-fluoromethylketone (zVAD-fmk), a broad-spectrum irreversible inhibitor of caspase-family proteases (Enzyme Systems, Dublin, Calif.) was tested. Accordingly, PPC-1 cells were treated with CH-11 and sensitizers such as 6094911, 5809354, and 5569100 with and without zVAD-fmk (100 μM) for […]. Apoptosis was then measured by annexin V staining.

[2] = tested on: FAS or TRAIL receptors; test: Surface expression of FAS or TRAIL receptors by flow cytometry; settings: PPC-1 cells, flow cytometry (data not shown)
From the text: Furthermore, since these compounds sensitize to both FAS and TRAIL, they presumably act distal to death receptors.

[3] = tested on: FLIP; test: FLIP protein levels by SDS-PAGE/immunoblotting
Description: FIG. 7. Effect of FAS-sensitizing compounds on levels of FLIP protein and DISC activation. (A) PPC-1 cells (2×10^5) were seeded into 35 mm plates and treated the next day with various FAS-sensitizing compounds (30 μM), with (+) or without (−) CH-11 antibody (100 ng/mL). As a positive control, cells were treated with CDDO (5 μM). Cell lysates were prepared 24 hours later, normalized for total protein content, and analyzed by SDS-PAGE/immunoblotting using antibodies specific for FLIP or a-tubulin. (B) PPC-1, OVCAR-3, T47D, MDA-MB-468 and DU 145 cells (2×10^5) were seeded into 35 mm plates and treated the next day with 5809354 (40 μM). Cell lysates were prepared 24 hours after treatment, normalized for total protein and analyzed by SDS-PAGE/immunoblotting using antibodies specific for FLIP or β-actin. (C) PPC-1, OVCAR-3, T47D, and DU 145 cells (2×10^5) were seeded into 35 mm plates and treated the next day with 5809354 (40 μM) (black bars) or buffer control (white bars). mRNA was extracted 24 hours after treatment. Levels of the long isoform of FLIP and GAPDH were detected by quantitative RT-PCR. Levels of FLIP were normalized for GAPDH expression and expressed as a mean fold change+SD over buffer treated cells. (D) PPC-1 cells (2×10^5) were seeded into 35 mm plates and treated the next day with various FAS-sensitizing compounds (30 μM) with (+) or without (−) CH-11 (100 ng/mL). Cell lysates were prepared 24 hours after treatment, normalized for total protein, and analyzed by SDS-PAGE/immunoblotting using antibodies specific for caspase-8 and β-actin.
FIG. 13. Small molecule down-regulation of FLIP sensitizes prostate cancer cells to anoikis. (A) PPC-1 cells were seeded overnight in adherent conditions and then treated with increasing concentrations of 5809354 for 16 hours. After incubation, cells were harvested. Total cellular RNA was extracted and mRNA levels of the long isoform of FLIP (FLIPL), the short isoform of FLIP (FLIPS), or rRNA levels of 18S were detected by real-time RT-PCR. Data were normalized using the ΔΔCT method and expressed as the mean±SEM percent of […] expression relative to untreated controls. (B) PPC-1 cells were cultured and treated as in panel A. Total cellular protein was isolated and analyzed by SDS-PAGE immunoblotting using anti-FLIP and anti-Actin antibodies. (C) PPC-1 cells were seeded overnight in adherent conditions and then exposed to increasing concentrations of 5809354 in the presence or absence of Fas-activating antibody (CH-11, 100 ng/mL). Thirty hours after incubation, cell viability was determined using the MTS assay. Data represents the mean±SEM of percent of viable cells. (D) PPC-1 cells were seeded overnight in adherent or suspension conditions and then treated with increasing concentrations of 5809354 for 30 hours. After incubation, apoptosis was measured by flow cytometry to detect cell surface annexin V expression and PI. Data represents the mean±SEM of percent of viable cells. (E) Cells were harvested, fixed, stained with DAPI, and nuclear morphology analyzed by fluorescence microscopy. Arrowheads refer to fragmented nuclei indicative of apoptosis. […] Thirty hours after incubation, cells were harvested and equal volumes plated in a colony formation assay. One week later, cells were stained with methylene blue and the number of colonies counted. Data represents the mean ±SEM percent of colonies relative to untreated controls.
Immunoblot analysis. Protein extracts were obtained by washing cells with phosphate-buffered saline (PBS) [pH 7.4] and suspending the cells in lysis buffer [10 mM Tris (pH 7.4), 150 mM NaCl, 0.1% Triton X-100, 0.5% sodium deoxycholate, and 5 mM EDTA] containing protease inhibitors (Complete tablets; Roche, Indianapolis, Ind.). Immunoblot assays were performed as described in Carter et al. (2005). […]

[4] = PPC-1 cells, 30 μM, with or without CH-11, 24 hours, long isoform

Compound: 4-(4-chloro-2-methylphenoxy)-N-hydroxybutanamide [compound 5809354]
- effect of zVAD-fmk on sensitization to CH-11 [1]: zVAD-fmk blocked sensitization to CH-11
- surface expression of FAS or TRAIL receptors [2]: did not change
- FLIP protein expression ([3]; Example 2, PPC-1 cells, increasing concentrations, 16 hours): concentration-dependent decrease
- levels of FLIP protein [3, 4]: decreased levels of FLIP protein
- levels of FLIP protein ([3]; non-responding cell lines DU145 and MDA-MB-468, 40 μM, 24 hours): levels of FLIP were decreased

Compound: CCn1c(=N)n(CC(=O)c2cc(C(C)(C)C)c(O)c(C(C)(C)C)c2)c2ccccc21 [compound 5569100, 1-(3,5-di-tert-butyl-4-hydroxyphenyl)-2-(3-ethyl-2-imino-2,3-dihydro-1H-benzo[d]imidazol-1-yl)ethanone hydrobromide]
- effect of zVAD-fmk on sensitization to CH-11 [1]: zVAD-fmk blocked sensitization to CH-11
- surface expression of FAS or TRAIL receptors [2]: did not change
- levels of FLIP protein ([3]; PPC-1 cells, 30 μM, with or without CH-11, 24 hours, long isoform, hydrobromide): decreased levels of FLIP protein; also recorded: reduced FLIP expression

Compound: CC(=O)CC(=O)Nc1ccc(Cl)c(C(F)(F)F)c1 [compound 6094911, N-[4-chloro-3-(trifluoromethyl)phenyl]-3-oxobutanamide]
- effect of zVAD-fmk on sensitization to CH-11 [1]: zVAD-fmk blocked sensitization to CH-11
- surface expression of FAS or TRAIL receptors [2]: did not change
- levels of FLIP protein [3, 4]: did not alter levels of FLIP protein
